Laboratory results published in patent US20260062426A1, “CYCLIN DEPENDENT KINASE DEGRADERS AND METHODS OF USE THEREOF” (Differentiated Therapeutics Inc, priority 2023, published 2026).

What was measured:
Format in all cases: cell-based
[1] = target: T1, CCNE1 (Homo sapiens, UniProt P24864+P24941); assay: CCNE1 HIBIT PQ (protein quantification), degradation; settings: for CCNE1 HIBIT PQ Max (%): Max = Maximum; for DC50: PQ = Protein Quantification
T1 construct: host or cells: HEK293
In short: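 Compound was applied for 6 hours to HEK293 cells expressing HiBiT-tagged CCNE1, which had been seeded overnight in 384-well plates at 1.6×10⁵ cells/well. CCNE1 protein was then read by HiBiT assay against a high control of 0.1% DMSO-treated cells and a low control of medium only. These readings gave DC50 and maximal degradation.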

[2] = target: T2, CDK2 (Homo sapiens, UniProt P24941); assay: CDK2 HIBIT PQ (protein quantification), degradation; settings: for CDK2 HIBIT PQ Max (%): Max = Maximum; for DC50: PQ = Protein Quantification
T2 construct: host or cells: HEK293
In short: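 HEK293 cells carrying HiBiT-tagged CDK2 were grown in DMEM with 10% FBS and seeded in 384-well plates at 1.6×10^5 cells/well in 50 uL, then incubated overnight at 37° C and 5% CO2. After 6 hours of compound treatment, 20 μL of HiBiT reagent (Nano-Glo HiBiT lytic buffer, lytic substrate, LgBiT protein) was added and plates were shaken for 20 minutes at room temperature before an EnVision reading. High control was 0.1% DMSO and low control was medium only. Maximal degradation and DC50 were derived from these readings.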

[3] = target: T3, CDK9 (Homo sapiens, UniProt P50750); assay: CDK9 HIBIT PQ (protein quantification), degradation; settings: for Dmax: Max = Maximum; for DC50: PQ = Protein Quantification
T3 construct: host or cells: HEK293
T3 sequence (P50750 whole entry): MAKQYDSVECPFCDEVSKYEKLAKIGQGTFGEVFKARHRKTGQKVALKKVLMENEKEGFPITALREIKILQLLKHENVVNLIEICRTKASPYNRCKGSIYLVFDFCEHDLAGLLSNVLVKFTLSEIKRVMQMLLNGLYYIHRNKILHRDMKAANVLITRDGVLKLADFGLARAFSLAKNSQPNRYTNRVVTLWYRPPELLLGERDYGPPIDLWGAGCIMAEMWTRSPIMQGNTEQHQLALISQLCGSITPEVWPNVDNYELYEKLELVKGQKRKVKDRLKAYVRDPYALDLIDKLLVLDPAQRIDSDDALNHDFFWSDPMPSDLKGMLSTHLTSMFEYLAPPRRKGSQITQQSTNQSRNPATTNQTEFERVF
In short: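 In 384-well plates, HEK293 cells with HiBiT-tagged CDK9, grown in DMEM with 10% FBS, were seeded at 1.6×10^5 cells/well in 50 uL and kept overnight at 37° C and 5% CO2. After compound treatment, a HiBiT assay quantified CDK9 protein against a high control of 0.1% DMSO-treated cells and a low control of culture medium only. Maximal degradation, Dmax and DC50 were derived from the resulting signal.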

SMILES	CCNE1 HIBIT PQ Max (%) [1]	DC50 [1]	CDK2 HIBIT PQ Max (%) [2]	DC50 [2]	Dmax [3]	DC50 [3]
CC(C)Oc1c(-c2cn[nH]c2)ncn2nc(Nc3ccc(S(=O)(=O)c4cccc(C[C@H]5C[C@@H](c6ccc7c(c6)CN([C@H]6CCC(=O)NC6=O)C7=O)C5)c4)cc3F)nc12 (stereo in doubt) [Compound 81, (S)-3-(5-((1r,3R)-3-(3-((3-fluoro-4-((8-isopropoxy-7-(1H-pyrazol-4-yl)-[1,2,4]triazolo[1,5-c]pyrimidin-2-yl)amino)phenyl)sulfonyl)benzyl)cyclobutyl)-1-oxoisoindolin-2-yl)piperidine-2,6-dione]	57%	62.8 nM	86%	24.2 nM	1%	–
CC(C)Oc1c(-c2cn[nH]c2)ncn2nc(Nc3ccc(S(=O)(=O)c4cccc(C[C@H]5C[C@H](c6ccc7c(c6)CN([C@H]6CCC(=O)NC6=O)C7=O)C5)c4)cc3F)nc12 (stereo in doubt) [Compound 82, (S)-3-(5-((1s,3S)-3-(3-((3-fluoro-4-((8-isopropoxy-7-(1H-pyrazol-4-yl)-[1,2,4]triazolo[1,5-c]pyrimidin-2-yl)amino)phenyl)sulfonyl)benzyl)cyclobutyl)-1-oxoisoindolin-2-yl)piperidine-2,6-dione]	52%	100 nM	88%	23.4 nM	27%	–
CC(C)Oc1c(-c2cn[nH]c2)ncn2nc(NC3CCN(S(=O)(=O)c4cccc(CN5CCC(c6ccc7c(N8CCC(=O)NC8=O)nn(C)c7c6)CC5)c4)CC3)nc12 [Compound 1, 1-(6-(1-(3-((4-((8-isopropoxy-7-(1H-pyrazol-4-yl)-[1,2,4]triazolo[1,5-c]pyrimidin-2-yl)amino)piperidin-1-yl)sulfonyl)benzyl)piperidin-4-yl)-1-methyl-1H-indazol-3-yl)dihydropyrimidine-2,4(1H,3H)-dione]	92%	1.94 nM	93%	1.62 nM	104%	2.98 nM
CC(C)Oc1c(-c2cn[nH]c2)ncn2nc(N[C@H]3CCN(S(=O)(=O)c4cccc(CN5CCC(c6ccc7c(N8CCC(=O)NC8=O)nn(C)c7c6)CC5)c4)C[C@H]3C)nc12 [Compound 5]	94%	3.16 nM	92%	1.67 nM	104%	3.91 nM
CC(C)Oc1c(-c2cn[nH]c2)ncn2nc(N[C@H]3CCN(S(=O)(=O)N(C)CCCN4CCC(c5cccc6c5n(C)c(=O)n6C5CCC(=O)NC5=O)CC4)C[C@H]3C)nc12 (stereo partly shown) [Compound 7]	96%	0.76 nM	92%	1.07 nM	91%	2.13 nM
CC(C)Oc1c(-c2cn[nH]c2)ncn2nc(Nc3ccc(S(=O)(=O)c4cccc(CN5CCC(c6ccc7c(N8CCC(=O)NC8=O)nn(C)c7c6)CC5)c4)cc3F)nc12 [Compound 8, 1-(6-(1-(3-((3-fluoro-4-((8-isopropoxy-7-(1H-pyrazol-4-yl)-[1,2,4]triazolo[1,5-c]pyrimidin-2-yl)amino)phenyl)sulfonyl)benzyl)piperidin-4-yl)-1-methyl-1H-indazol-3-yl)dihydropyrimidine-2,4(1H,3H)-dione]	81%	7.36 nM	92%	1.58 nM	91%	10.2 nM
CC(C)Oc1c(-c2cn[nH]c2)ncn2nc(Nc3ccc(S(=O)(=O)N(C)CCCN4CCC(c5ccc6c(N7CCC(=O)NC7=O)nn(C)c6c5)CC4)cc3F)nc12 [Compound 15]	93%	0.72 nM	95%	0.35 nM	99%	1.37 nM
CC(C)Oc1c(-c2cn[nH]c2)ncn2nc(Nc3ccc(S(=O)(=O)N(C)CCCN4CCC(c5cccc6c(N7CCC(=O)NC7=O)nn(C)c56)CC4)cc3F)nc12 [Compound 24]	88%	3.14 nM	94%	0.6 nM	14%	–
CC(C)Oc1c(-c2cn[nH]c2)ncn2nc(Nc3ccc(S(=O)(=O)c4cccc(CN5CCC(c6cccc7c(N8CCC(=O)NC8=O)nn(C)c67)CC5)c4)cc3F)nc12 [Compound 26]	51%	2.4 nM	84%	3.8 nM	13%	–
CC(C)Oc1c(-c2cn[nH]c2)ncn2nc(Nc3ccc(S(=O)(=O)N4CC5(CCCN(CCOc6cccc7c6n(C)c(=O)n7C6CCC(=O)NC6=O)C5)C4)cc3F)nc12 (stereo not shown) [Compound 27]	10%	–	66%	6.3 nM	6%	–
CC(C)Oc1c(-c2cn[nH]c2)ncn2nc(Nc3ccc(S(=O)(=O)c4cccc(C[C@H]5C[C@@H](c6ccc7c(c6)CN(C6CCC(=O)NC6=O)C7=O)C5)c4)cc3F)nc12 (stereo partly shown) [Compound 29, 3-{1-oxo-5-[(1s,3s)-3-{[3-(3-fluoro-4-{[8-isopropoxy-7-(1H-pyrazol-4-yl)-[1,2,4]triazolo[1,5-c]pyrimidin-2-yl]amino}benzenesulfonyl)phenyl]methyl}cyclobutyl]-3H-isoindol-2-yl}piperidine-2,6-dione]	78%	18.7 nM	94%	8 nM	12%	–
CC(C)Oc1c(-c2cn[nH]c2)ncn2nc(Nc3ccc(S(=O)(=O)c4cccc(C[C@H]5C[C@H](c6ccc7c(c6)CN(C6CCC(=O)NC6=O)C7=O)C5)c4)cc3F)nc12 (stereo partly shown) [Compound 30]	79%	29.5 nM	96%	7.2 nM	54%	147 nM
CC(C)Oc1c(-c2cn[nH]c2)ncn2nc(Nc3ccc(S(=O)(=O)c4cccc(CC5CC(c6ccc7c(N8CCC(=O)NC8=O)nn(C)c7c6)C5)c4)cc3F)nc12 (stereo not shown) [Compound 33, 1-(6-(3-(3-((3-fluoro-4-((8-isopropoxy-7-(1H-pyrazol-4-yl)-[1,2,4]triazolo[1,5-c]pyrimidin-2-yl)amino)phenyl)sulfonyl)benzyl)cyclobutyl)-1-methyl-1H-indazol-3-yl)dihydropyrimidine-2,4(1H,3H)-dione]	47%	–	91%	19 nM	9%	–
CC(C)Oc1c(-c2cn[nH]c2)ncn2nc(Nc3ccc(S(=O)(=O)c4cccc(N5CCC6C5CN6c5ccc6c(c5)CN(C5CCC(=O)NC5=O)C6=O)c4)cc3F)nc12 (stereo not shown) [Compound 34, 3-(5-{2-[3-(3-fluoro-4-{[8-isopropoxy-7-(1H-pyrazol-4-yl)-[1,2,4]triazolo[1,5-c]pyrimidin-2-yl]amino}benzenesulfonyl)phenyl]-2,6-diazabicyclo[3.2.0]heptan-6-yl}-1-oxo-3H-isoindol-2-yl)piperidine-2,6-dione]	62%	14.1 nM	86%	5.6 nM	31%	–
CC(C)Oc1c(-c2cn[nH]c2)ncn2nc(Nc3ccc(S(=O)(=O)c4cccc(N5CCCC6C5CN6c5ccc6c(c5)CN(C5CCC(=O)NC5=O)C6=O)c4)cc3F)nc12 (stereo not shown) [Compound 35]	25%	–	79%	6.5 nM	17%	–
CC(C)Oc1c(-c2cn[nH]c2)ncn2nc(Nc3ccc(S(=O)(=O)N4CCC5(CCN(C6CCN(c7ccc8c(c7)n(C)c(=O)n8C7CCC(=O)NC7=O)CC6)C5)C4)cc3F)nc12 (stereo not shown) [Compound 36]	63%	22.1 nM	89%	2.9 nM	87%	57.6 nM
CC(C)Oc1c(-c2cn[nH]c2)ncn2nc(Nc3ccc(S(=O)(=O)N4CCC5(CCCN5C5CCN(c6ccc7c(c6)n(C)c(=O)n7C6CCC(=O)NC6=O)CC5)C4)cc3F)nc12 (stereo not shown) [Compound 37]	30%	–	84%	2.9 nM	51%	43.7 nM
CC(C)Oc1c(-c2cn[nH]c2)ncn2nc(Nc3ccc(S(=O)(=O)c4cccc(CN5CCN(c6ccc7c(N8CCC(=O)NC8=O)nn(C)c7c6)CC5)c4)cc3F)nc12 [Compound 38]	55%	5.76 nM	96%	2.3 nM	63%	24 nM
CC(C)Oc1c(-c2cn[nH]c2)ncn2nc(N[C@H]3CCN(S(=O)(=O)c4cccc(CN5CCN(c6ccc7c(N8CCC(=O)NC8=O)nn(C)c7c6)CC5)c4)C[C@H]3C)nc12 [Compound 40]	89%	8.91 nM	96%	3.6 nM	103%	16.7 nM
CC(C)Oc1c(-c2cn[nH]c2)ncn2nc(Nc3ccc(S(=O)(=O)c4cccc(CN5CCN(c6ccc7c(N8CCC(=O)NC8=O)nn(C)c7c6)C6CC65)c4)cc3F)nc12 (stereo not shown) [Compound 44]	39%	–	92%	3.5 nM	15%	–
CC(C)Oc1c(-c2cn[nH]c2)ncn2nc(Nc3ccc(S(=O)(=O)c4cccc(CN5C6CC5CN(c5ccc7c(N8CCC(=O)NC8=O)nn(C)c7c5)C6)c4)cc3F)nc12 [Compound 45]	33%	–	85%	4.3 nM	-10%	–
